From patent US7410663B2, “Oil or fat composition” (Kao Corporation, priority 2002, dated 2008) come the findings set out here.

Each structure is given as a SMILES string.

Data set [1] can be described thus: Evaluation of rancid odor (organoleptic). The class given is physicochemical. Also noted: key: A: The sample is almost free from a rancid odor and the odor does not cause discomfort.; B: The sample emits a little rancid odor, but the odor causes little discomfort.; C: The sample emits a rancid odor and the odor causes discomfort.; D: The sample emits a severe rancid odor and the odor causes extreme discomfort. The following applies: oil or fat composition:water=70:30, room temperature for 1 week, smelled. The method, then: Each sample (each oil or fat composition:water=70:30) prepared in Example 3 was allowed to stand at room temperature for 1 week. The sample was smelled and organoleptic evaluation of rancid odor was performed based on the below-described criteria.

Another data set deals with T1, PPARγ (Homo sapiens, UniProt P37231).
T1 construct: expressed in transfected cells; host or cells: IEC-6 small intestine epithelial cell line
T1 sequence (P37231 238-503 limits assumed): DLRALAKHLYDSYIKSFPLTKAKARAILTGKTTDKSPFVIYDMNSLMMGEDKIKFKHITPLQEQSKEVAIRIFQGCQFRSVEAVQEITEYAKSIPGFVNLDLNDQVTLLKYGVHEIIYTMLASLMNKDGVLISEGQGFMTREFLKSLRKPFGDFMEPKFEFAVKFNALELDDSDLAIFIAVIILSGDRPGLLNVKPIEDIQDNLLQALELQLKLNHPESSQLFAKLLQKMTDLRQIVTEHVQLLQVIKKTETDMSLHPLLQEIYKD
Kind of data set: Test on PPARγ activation (GAL4-PPARγ-LBD luciferase reporter in IEC-6 cells). The class given is cell-based. Conditions: control set at 100, test substance 500 μM, 24 hours. A general note: Reporter assays use an easily measured gene product as a stand-in for the process of interest.

A short description of data set [2]: Evaluation of gelling properties. The class given is physicochemical. Also noted: key: A: The mixture lacks fluidity and is gelled.; B: The mixture has low fluidity and is gelled slightly.; C: The mixture has fluidity and is partially gelled.; D: The mixture has fluidity and is not gelled at all. The following applies: 70:30 (weight/weight) mixture of oil or fat composition and water, visually observed. The source says: Gelling properties of a 70:30 (weight/weight) mixture of each oil or fat composition and water were visually observed and evaluated based on the below-described criteria. The results are shown in Table 1. • A: The mixture lacks fluidity and is gelled. • B: The mixture has low fluidity and is gelled slightly. • C: The mixture has fluidity and is partially gelled. • D: The mixture has fluidity and is not gelled at all.

Protocol for PPARγ: The small intestine epithelial cell line IEC-6 was inoculated on a 12 well plate and cultured in DMEM (5% FCS) for 24 hours. A plasmid (pGAL4-PPARγ-LBD) expressing the chimeric molecules of a GAL4-DNA binding domain (DBD) and a PPARγ ligand binding domain (LBD) and a reporter plasmid (pREP) containing a GAL4 binding sequence upstream of a firefly luciferase gene were introduced simultaneously by using a transfection reagent (“QIAGEN”; Superfect transfection reagent), each in an amount of 0.5 μg/well. In order to monitor the transfection efficiency, a renilla luciferase gene was incorporated in the pGAL4-PPARγ-LBD at the same time. The culture broth was then replaced with a DMEM (+250 μM BSA) medium containing a test substance (500 μM), followed by incubation for further 24 hours. After washing with PBS, the cells were lysed using dual luciferase assay system (product of Promega Corporation). To the resulting lysate was added a substrate solution containing luciferin, and firefly and renilla luciferase activities were measured by a luminometer. In the above-described manner, the PPARγ activating capacity was evaluated by measuring the transcriptional activity (luciferase activity) of the PPARγ-dependent gene. It is to be noted that the PPARγ-dependent gene transcriptional activity (luciferase activity) was defined as described below. […]

With `CC/C=C\C/C=C\C/C=C\C/C=C\C/C=C\CCCC(=O)O` [Oil or Fat Composition 7, Eicosapentaenoic acid], in data set [1], the Rancid odor entry is given as “D”. The “PPARγ (PPARγ-dependent transcriptional activity, luciferase, relative to control)” value on PPARγ is 480. Also, in data set [2], the Gelling properties result was “D”.

With `CC/C=C\C/C=C\C/C=C\C/C=C\C/C=C\C/C=C\CCC(=O)O` [Oil or Fat Composition 8, Docosahexaenoic acid], in data set [1], the Rancid odor result is “D”. At PPARγ, the “PPARγ (PPARγ-dependent transcriptional activity, luciferase, relative to control)” value is reported as 508. Further, the Gelling properties entry in data set [2] is on record as “D”.
